In patent publication US20250353891A1 (MEDIMMUNE LIMITED, priority 2022, published 2025):
Starred links: 1 amine or outer side, 2 acyl side, 3 side chain; linkers in the order of their positions; H or OH if unused. Non-standard residues stand in square brackets, D forms with d. Residues, ends and D or L forms follow the SMILES beside them. Groups on a side chain read outwards from the residue. *: point of attachment. C20 diacid = O=C(O)CCCCCCCCCCCCCCCCCCC(=O)*; C18 diacid = O=C(O)CCCCCCCCCCCCCCCCC(=O)*; γGlu = O=C(O)[C@H](CCC(=O)[*:2])N[*:1]; αMeF = C[C@](N)(Cc1ccccc1)C(=O)O; AEEA = NCCOCCOCC(=O)O; Aib = CC(C)(N)C(=O)O

Assays:
[1] = molecular target: human glucagon receptor (hGCGR) (Homo sapiens, UniProt P47871); test: cAMP production (HTRF) in CHO cells expressing hGCGR; format: cell-based; set-up: expressed in transfected cells; details: Table 6, peptides modified at position 17; cAMP in CHO hGCGR cells; geometric mean; read-out: hGluc-R EC50
Chain of human glucagon receptor (hGCGR) (P47871 26-477): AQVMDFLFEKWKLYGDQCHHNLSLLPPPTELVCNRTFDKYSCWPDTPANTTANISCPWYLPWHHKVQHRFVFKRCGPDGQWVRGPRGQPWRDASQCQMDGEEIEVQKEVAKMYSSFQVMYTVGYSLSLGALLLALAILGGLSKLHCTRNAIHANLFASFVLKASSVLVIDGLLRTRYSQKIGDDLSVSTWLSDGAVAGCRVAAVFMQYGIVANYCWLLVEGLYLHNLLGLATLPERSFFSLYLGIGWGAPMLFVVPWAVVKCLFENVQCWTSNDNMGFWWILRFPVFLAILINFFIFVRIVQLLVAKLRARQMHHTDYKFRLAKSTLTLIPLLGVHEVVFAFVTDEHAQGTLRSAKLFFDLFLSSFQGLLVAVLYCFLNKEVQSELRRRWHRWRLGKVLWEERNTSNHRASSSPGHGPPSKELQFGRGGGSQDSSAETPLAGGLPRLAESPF
How it was run: (§1)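 Potency values represent EC50 from 4-parameter logistic curves of HTRF % Delta F signal. Receptor-expressing CHO cells (hGCGR 2×10^5 cells/mL, hGLP-1R 1×10^5 cells/mL) were exposed for 30 min at room temperature before two-step cAMP detection.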

[2] = molecular target: human GLP-1 receptor (hGLP-1R) (Homo sapiens, UniProt P43220); test: cAMP production (HTRF) in CHO cells expressing hGLP-1R; format: cell-based; set-up: expressed in transfected cells; details: for EC50: Table 6, peptides modified at position 17, cAMP in CHO hGLP-1R cells, geometric mean, read-out: hGLP-1R EC50; for % Relative Potency Ratio: Table 6, % GLP-1R activity relative to GLP-1 / % GlucR activity relative to glucagon
Chain of human GLP-1 receptor (hGLP-1R) (P43220 24-463): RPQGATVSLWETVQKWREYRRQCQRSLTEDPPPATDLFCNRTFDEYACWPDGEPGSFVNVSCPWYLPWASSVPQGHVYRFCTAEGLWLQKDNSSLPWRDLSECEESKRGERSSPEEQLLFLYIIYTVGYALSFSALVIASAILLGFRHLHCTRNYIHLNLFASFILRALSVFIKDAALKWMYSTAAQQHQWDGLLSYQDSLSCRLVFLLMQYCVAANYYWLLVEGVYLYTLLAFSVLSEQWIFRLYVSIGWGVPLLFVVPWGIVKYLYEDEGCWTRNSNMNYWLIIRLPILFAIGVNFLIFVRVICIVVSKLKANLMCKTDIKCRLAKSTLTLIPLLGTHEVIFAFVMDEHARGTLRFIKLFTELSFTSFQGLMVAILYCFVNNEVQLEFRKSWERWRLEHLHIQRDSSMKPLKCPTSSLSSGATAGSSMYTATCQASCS
How it was run: as §1

SMILES	EC50 [1] [nM]	EC50 [2] [nM]	% Relative Potency Ratio [2]
CC(C)C[C@H](NC(=O)[C@H](Cc1c[nH]c2ccccc12)NC(=O)[C@H](CCC(N)=O)NC(=O)[C@@H](NC(=O)[C@H](Cc1ccccc1)NC(=O)[C@H](CC(=O)O)NC(=O)[C@H](CCC(N)=O)NC(=O)[C@H](C)NC(=O)[C@H](CCCNC(=N)N)NC(=O)[C@H](CCCCNC(=O)COCCOCCNC(=O)COCCOCCNC(=O)CC[C@H](NC(=O)CCCCCCCCCCCCCCCCCCC(=O)O)C(=O)O)NC(=O)[C@@H](NC(=O)[C@H](CC(=O)O)NC(=O)[C@H](CC(C)C)NC(=O)[C@](C)(Cc1ccccc1)NC(=O)[C@H](CCCCN)NC(=O)[C@H](CO)NC(=O)[C@@H](NC(=O)[C@H](CC(=O)O)NC(=O)[C@H](CO)NC(=O)[C@@H](NC(=O)[C@H](Cc1ccccc1)NC(=O)[C@@H](NC(=O)CNC(=O)[C@H](CCC(N)=O)NC(=O)C(C)(C)NC(=O)[C@@H](N)Cc1c[nH]cn1)[C@@H](C)O)[C@@H](C)O)C(C)C)[C@@H](C)O)C(C)C)C(=O)N[C@@H](CC(C)C)C(=O)NC(C)(C)C(=O)N[C@@H](CCC(=O)O)C(N)=O [Peptide 485] (H-H[Aib]QGTFTSDVSK[αMeF]LDTK([AEEA-AEEA-γGlu-C20 diacid])RAQDFVQWLL[Aib]E-NH2; N-terminus assumed)	0.0904	0.219	0.8
CC(C)C[C@H](NC(=O)[C@H](CC(=O)O)NC(=O)[C@H](CC(C)C)NC(=O)[C@](C)(Cc1ccccc1)NC(=O)[C@H](CCCCN)NC(=O)[C@H](CO)NC(=O)[C@@H](NC(=O)[C@H](CC(=O)O)NC(=O)[C@H](CO)NC(=O)[C@@H](NC(=O)[C@H](Cc1ccccc1)NC(=O)[C@@H](NC(=O)CNC(=O)[C@H](CCC(N)=O)NC(=O)C(C)(C)NC(=O)[C@@H](N)Cc1c[nH]cn1)[C@@H](C)O)[C@@H](C)O)C(C)C)C(=O)N[C@@H](CCCCNC(=O)COCCOCCNC(=O)COCCOCCNC(=O)CC[C@H](NC(=O)CCCCCCCCCCCCCCCCCCC(=O)O)C(=O)O)C(=O)N[C@@H](CCCNC(=N)N)C(=O)N[C@@H](C)C(=O)N[C@@H](CCC(N)=O)C(=O)N[C@@H](CC(=O)O)C(=O)N[C@@H](Cc1ccccc1)C(=O)N[C@H](C(=O)N[C@@H](CCCNC(=N)N)C(=O)N[C@@H](Cc1c[nH]c2ccccc12)C(=O)N[C@@H](CC(C)C)C(=O)N[C@@H](CC(C)C)C(=O)NC(C)(C)C(=O)N[C@@H](CCC(=O)O)C(=O)O)C(C)C [Peptide 486]	0.166	0.42	0.8
CC(C)C[C@H](NC(=O)[C@H](Cc1c[nH]c2ccccc12)NC(=O)[C@H](CCC(N)=O)NC(=O)[C@@H](NC(=O)[C@H](Cc1ccccc1)NC(=O)[C@H](CC(=O)O)NC(=O)[C@H](CCCNC(=N)N)NC(=O)[C@H](C)NC(=O)[C@H](CCCNC(=N)N)NC(=O)[C@H](CCCCNC(=O)COCCOCCNC(=O)COCCOCCNC(=O)CC[C@H](NC(=O)CCCCCCCCCCCCCCCCC(=O)O)C(=O)O)NC(=O)[C@@H](NC(=O)[C@H](CC(=O)O)NC(=O)[C@H](CC(C)C)NC(=O)[C@](C)(Cc1ccccc1)NC(=O)[C@H](CCCCN)NC(=O)[C@H](CO)NC(=O)[C@@H](NC(=O)[C@H](CC(=O)O)NC(=O)[C@H](CO)NC(=O)[C@@H](NC(=O)[C@H](Cc1ccccc1)NC(=O)[C@@H](NC(=O)CNC(=O)[C@H](CCC(N)=O)NC(=O)C(C)(C)NC(=O)[C@@H](N)Cc1c[nH]cn1)[C@@H](C)O)[C@@H](C)O)C(C)C)[C@@H](C)O)C(C)C)C(=O)N[C@@H](CC(C)C)C(=O)NC(C)(C)C(=O)N[C@H](C(=O)N[C@@H](CCC(=O)O)C(N)=O)[C@@H](C)O [Peptide 489] (H-H[Aib]QGTFTSDVSK[αMeF]LDTK([AEEA-AEEA-γGlu-C18 diacid])RARDFVQWLL[Aib]TE-NH2; N-terminus assumed)	0.168	0.0228	14.5

Further lines, results first:

EC50 [1] [nM]	EC50 [2] [nM]	% Relative Potency Ratio [2]	SMILES
0.164	0.0655	5.0	CC(C)C[C@H](NC(=O)[C@H](Cc1c[nH]c2ccccc12)NC(=O)[C@H](CCC(N)=O)NC(=O)[C@@H](NC(=O)[C@H](Cc1ccccc1)NC(=O)[C@H](CC(=O)O)NC(=O)[C@H](CCCNC(=N)N)NC(=O)[C@H](C)NC(=O)[C@H](CCCNC(=N)N)NC(=O)[C@H](CCCCNC(=O)COCCOCCNC(=O)COCCOCCNC(=O)CC[C@H](NC(=O)CCCCCCCCCCCCCCCCC(=O)O)C(=O)O)NC(=O)[C@@H](NC(=O)[C@H](CC(=O)O)NC(=O)[C@H](CC(C)C)NC(=O)[C@](C)(Cc1ccccc1)NC(=O)[C@H](CCCCN)NC(=O)[C@H](CO)NC(=O)[C@@H](NC(=O)[C@H](CC(=O)O)NC(=O)[C@H](CO)NC(=O)[C@@H](NC(=O)[C@H](Cc1ccccc1)NC(=O)[C@@H](NC(=O)CNC(=O)[C@H](CCC(N)=O)NC(=O)C(C)(C)NC(=O)[C@@H](N)Cc1c[nH]cn1)[C@@H](C)O)[C@@H](C)O)C(C)C)[C@@H](C)O)C(C)C)C(=O)N[C@@H](CC(C)C)C(=O)NC(C)(C)C(=O)N[C@H](C(=O)N[C@@H](CCC(=O)O)C(=O)O)[C@@H](C)O [Peptide 487] (H-H[Aib]QGTFTSDVSK[αMeF]LDTK([AEEA-AEEA-γGlu-C18 diacid])RARDFVQWLL[Aib]TE-OH)
0.301	0.202	2.9	CC(C)C[C@H](NC(=O)[C@H](Cc1c[nH]c2ccccc12)NC(=O)[C@H](CCC(N)=O)NC(=O)[C@@H](NC(=O)[C@H](Cc1ccccc1)NC(=O)[C@H](CC(=O)O)NC(=O)[C@H](CCCNC(=N)N)NC(=O)[C@H](C)NC(=O)[C@H](CCCNC(=N)N)NC(=O)[C@H](CCCCNC(=O)COCCOCCNC(=O)COCCOCCNC(=O)CC[C@H](NC(=O)CCCCCCCCCCCCCCCCCCC(=O)O)C(=O)O)NC(=O)[C@@H](NC(=O)[C@H](CC(=O)O)NC(=O)[C@H](CC(C)C)NC(=O)[C@](C)(Cc1ccccc1)NC(=O)[C@H](CCCCN)NC(=O)[C@H](CO)NC(=O)[C@@H](NC(=O)[C@H](CC(=O)O)NC(=O)[C@H](CO)NC(=O)[C@@H](NC(=O)[C@H](Cc1ccccc1)NC(=O)[C@@H](NC(=O)CNC(=O)[C@H](CCC(N)=O)NC(=O)C(C)(C)NC(=O)[C@@H](N)Cc1c[nH]cn1)[C@@H](C)O)[C@@H](C)O)C(C)C)[C@@H](C)O)C(C)C)C(=O)N[C@@H](CC(C)C)C(=O)NC(C)(C)C(=O)N[C@H](C(=O)N[C@@H](CCC(=O)O)C(=O)O)[C@@H](C)O [Peptide 488] (H-H[Aib]QGTFTSDVSK[αMeF]LDTK([AEEA-AEEA-γGlu-C20 diacid])RARDFVQWLL[Aib]TE-OH; N-terminus assumed)
0.396	0.069	11.4	CC(C)C[C@H](NC(=O)[C@H](Cc1c[nH]c2ccccc12)NC(=O)[C@H](CCC(N)=O)NC(=O)[C@@H](NC(=O)[C@H](Cc1ccccc1)NC(=O)[C@H](CC(=O)O)NC(=O)[C@H](CCCNC(=N)N)NC(=O)[C@H](C)NC(=O)[C@H](CCCNC(=N)N)NC(=O)[C@H](CCCCNC(=O)COCCOCCNC(=O)COCCOCCNC(=O)CC[C@H](NC(=O)CCCCCCCCCCCCCCCCCCC(=O)O)C(=O)O)NC(=O)[C@@H](NC(=O)[C@H](CC(=O)O)NC(=O)[C@H](CC(C)C)NC(=O)[C@](C)(Cc1ccccc1)NC(=O)[C@H](CCCCN)NC(=O)[C@H](CO)NC(=O)[C@@H](NC(=O)[C@H](CC(=O)O)NC(=O)[C@H](CO)NC(=O)[C@@H](NC(=O)[C@H](Cc1ccccc1)NC(=O)[C@@H](NC(=O)CNC(=O)[C@H](CCC(N)=O)NC(=O)C(C)(C)NC(=O)[C@@H](N)Cc1c[nH]cn1)[C@@H](C)O)[C@@H](C)O)C(C)C)[C@@H](C)O)C(C)C)C(=O)N[C@@H](CC(C)C)C(=O)NC(C)(C)C(=O)N[C@H](C(=O)N[C@@H](CCC(=O)O)C(N)=O)[C@@H](C)O [Peptide 490] (H-H[Aib]QGTFTSDVSK[αMeF]LDTK([AEEA-AEEA-γGlu-C20 diacid])RARDFVQWLL[Aib]TE-NH2; N-terminus assumed)
